Measurements taken from the supplement of paper PMC7840683.
Counter-ions that a name gives are not always drawn.

Tested on: HepaRG
Test: LDH release cytotoxicity, % of total lysis control; higher = more cytotoxic
Conditions: 48 h
In short: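 Percent cytotoxicity was scaled between on-plate vehicle and total lysis controls, then averaged over duplicate wells. The cells were single-lot HepaRG on collagen I-coated 96-well plates, exposed for 48 h to eight-point half-log test chemical series topping at 100 µM in serum-free induction medium with 0.5% DMSO. Total lysis wells got 0.1% Triton X, and LDH in 50 µL spent medium was read as resorufin fluorescence (CytoTox-ONE, Tecan Safire).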

CCOS(=O)(=O)OCC [Diethyl sulfate]
Conditions | LDH release cytotoxicity [%]
0.03162 µM | -1.93
0.1 µM | -1.47
0.3162278 µM | -1.68
1 µM | -2.05
3.16228 µM | -1.61
10 µM | -1.77
31.6228 µM | -1.5
100 µM | 0.71

CC(C)(C)c1ccc(CSc2cnn(C(C)(C)C)c(=O)c2Cl)cc1 [Pyridaben]
Conditions | LDH release cytotoxicity [%]
0.03162 µM | -0.363
0.1 µM | -1.38
0.3162278 µM | -1.47
1 µM | -1.89
3.16228 µM | 17.6
10 µM | 26.6
31.6228 µM | 26.9
100 µM | 34.6

CCCCCCCCCCCCCCCCOS(=O)(=O)O [Sodium hexyldecyl sulfate]
Conditions | LDH release cytotoxicity [%]
0.01581 µM | -0.927
0.05 µM | -0.892
0.1581139 µM | -1.25
0.5 µM | -1.53
1.5811388 µM | -0.623
5 µM | -0.974
15.8114 µM | -0.978
50 µM | 10.6

OCCNCCO [Diethanolamine]
Conditions | LDH release cytotoxicity [%]
0.031623 µM | -1.15
0.1 µM | -1.45
0.316228 µM | -1.83
1 µM | -2.4
3.16228 µM | -2.41
10 µM | -1.71
31.6228 µM | -0.726
100 µM | 0.309

CCCCCCCCCCCC[N+](C)(C)C [Dodecyltrimethylammonium chloride]
Conditions | LDH release cytotoxicity [%]
0.03162 µM | -1.4
0.1 µM | -0.753
0.3162278 µM | -1.39
1 µM | -1.32
3.16228 µM | -1.23
10 µM | -0.28
31.6228 µM | 0.602
100 µM | 78

CCSC(=O)N1CCCCCC1 [Molinate]
Conditions | LDH release cytotoxicity [%]
0.03162 µM | -2.17
0.1 µM | -2.09
0.3162278 µM | -1.9
1 µM | -2.25
3.16228 µM | -1.81
10 µM | -1.34
31.6228 µM | -0.237
100 µM | 1.3

CCCCCCCCCCCCc1cccc(S(=O)(=O)O)c1 [Dodecylbenzene sulfonate triethanolamine(1:1)]
Conditions | LDH release cytotoxicity [%]
0.02846 µM | -1.49
0.09 µM | -0.848
0.284605 µM | -1.53
0.9 µM | -1.22
2.84605 µM | -0.852
9 µM | -1.11
28.4605 µM | -0.984
90 µM | 5.69

Cc1ccc(N)cc1N [2,4-Diaminotoluene]
Conditions | LDH release cytotoxicity [%]
0.031623 µM | -1.84
0.1 µM | -0.98
0.316228 µM | -1.49
1 µM | -2.17
3.16228 µM | -1.86
10 µM | -1.56
31.6228 µM | -1.29
100 µM | -0.394

O=C(O)CN(CC(=O)O)CC(=O)O [Nitrilotriacetic acid]
Conditions | LDH release cytotoxicity [%]
0.03162 µM | -0.992
0.1 µM | -2.54
0.3162278 µM | -2.46
1 µM | -2.18
3.16228 µM | -1.64
10 µM | -2.38
31.6228 µM | -1.51
100 µM | -0.286
